Values quoted from earlier work, collected in patent US11547674B2, “Protein-polymer hybrid biomaterials” (The Regents of the University of California, priority 2018, dated 2023).

Molecular target: Bacillus stearothermophillus LDH (Geobacillus stearothermophilus, UniProt P00344)
Details: read-out: Km of oxamate for LDH

Bacillus stearothermophillus LDH, sequence (P00344 whole entry): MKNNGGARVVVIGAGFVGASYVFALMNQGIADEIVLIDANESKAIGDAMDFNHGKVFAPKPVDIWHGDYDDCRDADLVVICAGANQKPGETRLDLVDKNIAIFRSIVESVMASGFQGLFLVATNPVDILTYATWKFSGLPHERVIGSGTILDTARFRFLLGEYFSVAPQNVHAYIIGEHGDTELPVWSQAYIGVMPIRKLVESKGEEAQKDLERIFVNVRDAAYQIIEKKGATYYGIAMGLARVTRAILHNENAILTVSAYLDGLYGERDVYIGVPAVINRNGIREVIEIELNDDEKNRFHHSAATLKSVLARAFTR

NC(=O)C(=O)O [oxamate]
Km: 600 µM
